Test results as given in patent US20150197492A1, “NOVEL INDENO[1,2-c]QUINOLIN-11-ONE DERIVATIVES, PREPARATION METHOD AND APPLICATION THEREOF” (National Defense Medical Center, priority 2014, published 2015).

Assays:
human PC-3 cells = assay: Sulforhodamine B (SRB) assay, cytotoxicity against PC-3 cells; format: cell-based; settings: SRB assay, PC-3 cells
Description: Add 5% Fetal Bovine Serum (FBS) to 96-well plate and fix the cells with 10% TCA after 24 hours of incubation and add the compound (T0). Add DMSO and culture for another 48 hours and the cells are fixed in 0.4% (W/V), 10% TCA and SRB, and […]. Excess SRB is washed off by 1% acetic acid and cells stained with SRB are dissolved in 10 mmol/L Trizma base. The absorbance is measured at 515 nm. The treatment time is 0 (T0), control growth (C) and the increase of the compound (Tx) in the cells are shown below and are used to calculate the increase of the concentration of the compound in percentage. Growth inhibition (GI %) is calculated using the following formula 100−[(TX−T0)/(C−T0)]×100. The 50% growth inhibition concentration (IC50) is used to confirm the concentration of compound and thus results in 50% reduction of the treated cells which control the amount of total protein.
This part of experimental results are SRB assays measuring cytotoxicity of the 26 synthesized compounds against human PC-3 cells and are summarized in Table 1 and 2.

Solubility in DMSO = format: physicochemical; settings: order SJ-2<SJ-24<SJ-3<SJ-11
From the text: The solubility of the four compounds in DMSO is poor, SJ-2<SJ-24<SJ-3<SJ-11, and therefore it is estimated and this is the reason why the three compounds which have previously proven to be effective against PC-3 cell line by SRB assays are ineffective in this experiment.

| Compound | melting point | solubility in DMSO (Solubility in DMSO) | Toxicity (%) (human PC-3 cells) | GI % (10 μM) (human PC-3 cells) |
| --- | --- | --- | --- | --- |
| O=C1c2cc(Cl)ccc2-c2c(N3CCC4(CC3)OCCO4)nc3ccccc3c21 [SJ-22] | 218 to 219 °C |  | 42.6% | 100% |
| O=C1c2cc(Cl)ccc2-c2c(N3CCCCCC3)nc3ccccc3c21 [SJ-7, 6-(Azepan-1-yl)-9-chloro-11H-indeno[1,2-c]quinolin-11-one] | 146 to 147 °C |  | 41.7% | 100% |
| CCN1CCN(c2nc3ccccc3c3c2-c2ccc(Cl)cc2C3=O)CC1 [SJ-13, 9-Chloro-6-(4-ethylpiperazin-1-yl)-11H-indeno[1,2-c]quinolin-11-one] | 182 to 184 °C |  | 29.7% | 100% |
| O=C1c2cc(Cl)ccc2-c2c(N3CCN(c4ccccc4F)CC3)nc3ccccc3c21 [SJ-18, 9-Chloro-6-(4-(2-fluorophenyl)piperazin-1-yl)-11H-indeno[1,2-c]quinolin-11-one] | 182 to 183 °C |  | 0% | 85.48% |
| COc1ccccc1N1CCN(c2nc3ccccc3c3c2-c2ccc(Cl)cc2C3=O)CC1 [SJ-19, 9-Chloro-6-(4-(2-methoxyphenyl)piperazin-1-yl)-11H-indeno[1,2-c]quinolin-11-one] | 129 to 131 °C |  | 8.5% | 100% |
| O=C1c2cc(Cl)ccc2-c2c(N3CCN(Cc4ccccc4)CC3)nc3ccccc3c21 [SJ-17, 6-(4-Benzylpiperazin-1-yl)-9-chloro-11H-indeno[1,2-c]quinolin-11-one] | 178 to 180 °C |  | 0% | 73.53% |

Further lines, with some results ahead:

| melting point | solubility in DMSO (Solubility in DMSO) | Compound | Toxicity (%) (human PC-3 cells) | GI % (10 μM) (human PC-3 cells) |
| --- | --- | --- | --- | --- |
| 149 to 150 °C |  | O=C1c2cc(Cl)ccc2-c2c(N3CCCC3)nc3ccccc3c21 [SJ-4, 9-Chloro-6-(pyrrolidin-1-yl)-11H-indeno[1,2-c]quinolin-11-one] | 47.2% | 100% |
| 191 to 192 °C |  | O=C1c2cc(Cl)ccc2-c2c(N3CCCCC3)nc3ccccc3c21 [SJ-5, 9-Chloro-6-(piperidin-1-yl)-11H-indeno[1,2-c]quinolin-11-one] | 22.2% | 100% |
| 149 to 151 °C | poor | O=C1c2cc(Cl)ccc2-c2c(N3CCC(CCCC4CCNCC4)CC3)nc3ccccc3c21 [SJ-24, 9-Chloro-6-(4-(3-(piperidin-4-yl)propyl)piperidin-1-yl)-11H-indeno[1,2-c]quinolin-11-one] | 63.8% | 100% |
| 208 to 209 °C |  | CN1CCC(N2CCN(c3nc4ccccc4c4c3-c3ccc(Cl)cc3C4=O)CC2)CC1 [SJ-21, 9-Chloro-6-(4-(1-methylpiperidin-4-yl)piperazin-1-yl)-11H-inden o[1,2-c]quinolin-11-one] | 66% | 100% |
| 174 to 175 °C |  | O=C1c2cc(Cl)ccc2-c2c(N3CCC(N4CCCCC4)CC3)nc3ccccc3c21 [SJ-15, 9-Chloro-6-(4-(piperidin-1-yl)piperidin-1-yl)-11H-indeno[1,2-c]quinolin-11-one] | 0% | 98.83% |
